Values quoted from earlier work, collected in PMC6331757, “Optimization of a peptide extraction and LC–MS protocol for quantitative analysis of antimicrobial peptides” (Future Science OA, 2018).

Test system: Gram-negative (e.g., Pseudomonas aeruginosa and Escherichia coli) and Gram-positive (e.g., Staphylococcus aureus) bacteria
Conditions: qualitative statement

VRLIVAVRIWRR [AMP 1018, synthetic antimicrobial peptide 1018 (…); also used as internal standard]
antibacterial activity (kills bacteria, disperses biofilms, inhibits bacterial swarming): potent antibacterial
